In patent US9327013B2, “Activity enhancer for anticancer agent” (TOKYO UNIVERSITY OF SCIENCE FOUNDATION, priority 2011, dated 2016):
Square brackets hold non-standard residues; d marks the D form. Ends that are not written are not given here. Peptide text beside a SMILES is read from it. NMeE = CN[C@@H](CCC(=O)O)C(=O)O

Assay: Stability of peptide in human serum (residual adhesion inhibitory activity after serum incubation)
Format: in vitro ADME
Conditions: for stability of activity in human serum (in words): 500 μg/mL in 90% human serum, 0 to 56 hours, FIGS. 2A to 2D; for residual adhesion inhibitory activity after serum treatment: untreated FNIII14 = 100
Experimental: FNIII14 (500 μg/mL), each of the modified peptides (500 μg/mL), or a solution thereof was incubated in human serum (final concentration 90%; 0.01% of sodium azide as a preservative having been added thereto) under a condition of 37° C. and 5% CO2 for determined periods in a range of from 0 to 56 hours. Thereafter, each sample was diluted with DMEM (-) such that the peptide concentration in each well would be 25 μg/mL, and was inoculated onto a 96-well tissue culture plate together with A375SM cells prepared at 1.5×10^4/well, the 96-well tissue culture plate having been coated with 0.5 μg/mL of FN. After the plate was subjected to culturing for a certain time, […] of a PBS (-) solution containing 4% of formalin and 5% of sucrose was gently added to wells, and left to stand at room temperature for 1 hour, whereby the cells were immobilized. After the immobilization, the number of cells observed in predetermined four fields was counted and taken as the total number of cells. Non-adhered cells were removed by washing with a PBS (-) solution three times, and then the number of adhered cells in the same four fields as those mentioned above was counted under a microscope. Assuming that the adhesion inhibitory activity of FNIII14 that was not subjected to the treatment with serum was 100, the ratio of the residual adhesion inhibitory activity of FNIII14 or the modified peptide remaining after the serum treatment was evaluated in terms of percentage. In FIGS. 2A to 2C, white diamonds represent the results obtained using FNIII14, white squares represent the results obtained using Ace-FNIII14, white circles represent the results obtained using Met-FNIII14, and white triangles represent the results obtained using D-FNIII14. In FIG. 2D, black circles represent the activity of FNIII14, and black triangles represent the activity of D-Glu-FNIII14.

Molecule | stability of activity in human serum (in words) (37° C.) | increase of activity in the serum (90% human serum, 37° C.) | residual adhesion inhibitory activity after serum treatment (90% human serum, 37° C.) | resistance to decomposition in human serum (aminopeptidase or the like in human serum) | time at which decomposition tendency was exhibited in serum (long term stability over 60 hours, FIG. 2D) | residual adhesion inhibitory activity after serum treatment (after 20 hours in 90% human serum, 37° C., FIG. 2A)
CC[C@H](C)[C@H](NC(=O)[C@@H](NC(=O)[C@H](Cc1ccc(O)cc1)NC(=O)[C@@H](NC(=O)[C@@H](NC(=O)[C@H](Cc1ccc(O)cc1)NC(=O)[C@H](CCC(=O)O)NC(=O)[C@@H](NC(=O)CNC(=O)[C@@H]1CCCN1C(=O)[C@H](CCC(=O)O)NC(=O)[C@H](CC(C)C)NC(=O)CNC(=O)[C@@H](NC(=O)[C@@H](NC(=O)[C@@H](NC(=O)[C@H](C)NC(=O)[C@@H](CCC(=O)O)NC(=O)[C@@H](N)[C@@H](C)O)[C@@H](C)O)[C@@H](C)CC)[C@@H](C)O)[C@@H](C)O)[C@@H](C)O)[C@@H](C)CC)C(C)C)C(=O)N[C@@H](C)C(=O)N[C@@H](CC(C)C)C(=O)O [D-Glu-FNIII14, T-[D-Glu]-ATITGLEPGTEYTIYVIAL] (H-T[dE]ATITGLEPGTEYTIYVIAL-OH; N-terminus and C-terminus assumed) | did not exhibit a decrease of its activity in the serum | ≥ 20% | over 100% | exhibited resistance to decomposition | ≥ 50 h | 
CC[C@H](C)[C@H](NC(=O)[C@@H](NC(=O)[C@H](Cc1ccc(O)cc1)NC(=O)[C@@H](NC(=O)[C@@H](NC(=O)[C@H](Cc1ccc(O)cc1)NC(=O)[C@H](CCC(=O)O)NC(=O)[C@@H](NC(=O)CNC(=O)[C@@H]1CCCN1C(=O)[C@H](CCC(=O)O)NC(=O)[C@H](CC(C)C)NC(=O)CNC(=O)[C@@H](NC(=O)[C@@H](NC(=O)[C@@H](NC(=O)[C@H](C)NC(=O)[C@H](CCC(=O)O)N(C)C(=O)[C@@H](N)[C@@H](C)O)[C@@H](C)O)[C@@H](C)CC)[C@@H](C)O)[C@@H](C)O)[C@@H](C)O)[C@@H](C)CC)C(C)C)C(=O)N[C@@H](C)C(=O)N[C@@H](CC(C)C)C(=O)O [Met-FNIII14, [N-Me-Glu]^2-FNIII14] (H-T[NMeE]ATITGLEPGTEYTIYVIAL-OH; N-terminus and C-terminus assumed) | more stabilized than FNIII14 |  |  |  |  | 
Ac-TEATITGLEPGTEYTIYVIAL (N-terminus assumed) [Ace-FNIII14] | more stabilized than FNIII14 |  |  |  |  | 
TEATITGLEPGTEYTIYVIAL [FNIII14, reference compound] | rapidly lost its activity within 2 hours |  |  |  |  | about 60%
